Assay results published in US20240174622A1, “COMPOUND AND RADIOACTIVE LABELING COMPOUND” (NIHON MEDI-PHYSICS CO., LTD., priority 2021, published 2024).

Tests used:
[1] = test system: LNCaP tumor-transplanted mouse; test: Internal radioactivity distribution using LNCaP tumor-transplanted mouse; assay type: in vivo
Procedure, shortened: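 Biodistribution is given as percent injected dose per gram of tissue, measured in blood and organs harvested at time points from 1 h to 192 h. Radiotracers were given by tail-vein injection in saline at 185–259 kBq, n=2–3. Hosts were male CB17 SCID mice carrying LNCaP or PC-3 tumours implanted s.c. in Matrigel 40–60 days earlier.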

[2] = biological target: human serum albumin (HSA) (Homo sapiens, UniProt P02768); test: Evaluation of binding to albumin (HSA solution, PBS control); conditions: left to stand in HSA solution (45 mg/mL)
Procedure, shortened: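 Albumin binding read as the split of radioactivity between eluate and retained column fraction after gamma counting. Samples in human albumin or PBS control were centrifuged 2 min at 1500×g, 4° C., through Sephadex G-100 or G-50 spin columns.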

Sequence of human serum albumin (HSA) (P02768 25-609): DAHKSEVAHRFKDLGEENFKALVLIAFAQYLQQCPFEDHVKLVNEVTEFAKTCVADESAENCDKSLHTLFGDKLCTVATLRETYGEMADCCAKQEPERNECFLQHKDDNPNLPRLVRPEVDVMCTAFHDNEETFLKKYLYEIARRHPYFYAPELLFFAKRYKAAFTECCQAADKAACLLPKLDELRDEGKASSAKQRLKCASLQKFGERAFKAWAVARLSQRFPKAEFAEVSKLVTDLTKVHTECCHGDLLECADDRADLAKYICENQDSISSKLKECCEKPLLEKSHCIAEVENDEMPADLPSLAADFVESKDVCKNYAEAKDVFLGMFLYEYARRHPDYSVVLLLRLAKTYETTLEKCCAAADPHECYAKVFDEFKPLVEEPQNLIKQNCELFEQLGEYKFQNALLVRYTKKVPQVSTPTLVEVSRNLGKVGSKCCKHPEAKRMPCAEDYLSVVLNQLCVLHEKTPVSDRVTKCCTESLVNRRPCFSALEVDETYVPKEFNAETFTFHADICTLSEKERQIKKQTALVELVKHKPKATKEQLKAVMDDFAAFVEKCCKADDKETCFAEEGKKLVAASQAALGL

Q: Which Blood ([1]; 1 h after administration) does the source give for `O=C([O-])CN(Cc1cccc(C(=O)[O-])n1)C[C@H](Cc1ccc(NC(=O)[C@H](CCCCNC(=O)CCC(=O)NCCCC[C@H](NC(=O)N[C@@H](CCC(=O)O)C(=O)O)C(=O)O)NC(=O)CCCc2ccc(I)cc2)cc1)N(CC(=O)[O-])Cc1cccc(C(=O)[O-])n1.[111In+3]` [[^111In]In-Octapa-2] here?
A: The Blood was 14.4 ± 1.81 % ID/g.

Q: What about the Brain ([1]; 1 h after administration) of the same compound?
A: The Brain was 0.20 ± 0.03 % ID/g.

Q: What about the Heart ([1]; 1 h after administration) of the same compound?
A: The Heart was 3.98 ± 0.51 % ID/g.

Q: What about the Intestine ([1]; 1 h after administration) of the same compound?
A: The Intestine was 1.55 ± 0.21 % ID/g.

Q: And the Kidney ([1]; 1 h after administration)?
A: The Kidney was 121 ± 14.9 % ID/g.

Q: And the “LNCaP Tumor” value ([1]; 1 h after administration)?
A: Its value is 12.5 ± 0.26 % ID/g.

Q: And the Liver ([1]; 1 h after administration)?
A: Its Liver is 2.75 ± 0.54 % ID/g.

Q: What about the Lung ([1]; 1 h after administration) of the same compound?
A: Its Lung is 10.1 ± 1.34 % ID/g.

Q: What about the Muscle ([1]; 1 h after administration) of the same compound?
A: Its Muscle is 1.44 ± 0.24 % ID/g.

Q: And the Pancreas ([1]; 1 h after administration)?
A: The Pancreas was 1.73 ± 0.18 % ID/g.

Q: And the Spleen ([1]; 1 h after administration)?
A: The Spleen was 18.5 ± 4.39 % ID/g.

Q: And the “Stomach (% ID)” value ([1]; 1 h after administration)?
A: Its value is 0.51 ± 0.22 % ID.

Q: And the Blood ([1]; 4 h after administration)?
A: The Blood was 6.73 ± 1.63 % ID/g.

Q: What about the Brain ([1]; 4 h after administration) of the same compound?
A: Its Brain is 0.14 ± 0.02 % ID/g.

Q: What about the Heart ([1]; 4 h after administration) of the same compound?
A: Its Heart is 1.89 ± 0.49 % ID/g.

Q: What about the Intestine ([1]; 4 h after administration) of the same compound?
A: Its Intestine is 1.65 ± 0.37 % ID/g.

Q: What about the Kidney ([1]; 4 h after administration) of the same compound?
A: Its Kidney is 177 ± 35.7 % ID/g.

Q: And the “LNCaP Tumor” value ([1]; 4 h after administration)?
A: The value was 13.7 ± 3.24 % ID/g.

Q: And the Liver ([1]; 4 h after administration)?
A: The Liver was 1.67 ± 0.47 % ID/g.

Q: And the Lung ([1]; 4 h after administration)?
A: The Lung was 5.02 ± 0.89 % ID/g.

Q: And the Muscle ([1]; 4 h after administration)?
A: The Muscle was 0.63 ± 0.19 % ID/g.

Q: What about the Pancreas ([1]; 4 h after administration) of the same compound?
A: The Pancreas was 1.59 ± 0.94 % ID/g.

Q: What about the Spleen ([1]; 4 h after administration) of the same compound?
A: The Spleen was 13.2 ± 2.66 % ID/g.

Q: And the “Stomach (% ID)” value ([1]; 4 h after administration)?
A: Its value is 0.23 ± 0.02 % ID.

Q: What about the Blood ([1]; 24 h after administration) of the same compound?
A: The Blood was 0.84 ± 0.27 % ID/g.

Q: And the Brain ([1]; 24 h after administration)?
A: The Brain was 0.03 ± 0.01 % ID/g.

Q: What about the Heart ([1]; 24 h after administration) of the same compound?
A: Its Heart is 0.33 ± 0.05 % ID/g.

Q: And the Intestine ([1]; 24 h after administration)?
A: The Intestine was 0.82 ± 0.68 % ID/g.

Q: And the Kidney ([1]; 24 h after administration)?
A: The Kidney was 55.3 ± 19.3 % ID/g.

Q: What about the “LNCaP Tumor” value ([1]; 24 h after administration) of the same compound?
A: The value was 8.64 ± 2.27 % ID/g.

Q: And the Liver ([1]; 24 h after administration)?
A: Its Liver is 0.33 ± 0.02 % ID/g.

Q: What about the Lung ([1]; 24 h after administration) of the same compound?
A: Its Lung is 0.74 ± 0.12 % ID/g.

Q: What about the Muscle ([1]; 24 h after administration) of the same compound?
A: Its Muscle is 0.07 ± 0.02 % ID/g.

Q: What about the Pancreas ([1]; 24 h after administration) of the same compound?
A: Its Pancreas is 0.19 ± 0.05 % ID/g.

Q: What about the Spleen ([1]; 24 h after administration) of the same compound?
A: The Spleen was 1.97 ± 0.90 % ID/g.

Q: What about the “Stomach (% ID)” value ([1]; 24 h after administration) of the same compound?
A: Its value is 0.21 ± 0.15 % ID.

Q: And the Blood ([1]; 48 h after administration)?
A: Its Blood is 0.26 ± 0.23 % ID/g.

Q: And the Brain ([1]; 48 h after administration)?
A: The Brain was 0.02 ± 0.01 % ID/g.

Q: What about the Heart ([1]; 48 h after administration) of the same compound?
A: The Heart was 0.18 ± 0.12 % ID/g.

Q: And the Intestine ([1]; 48 h after administration)?
A: The Intestine was 0.68 ± 0.32 % ID/g.

Q: And the Kidney ([1]; 48 h after administration)?
A: Its Kidney is 22.4 ± 14.5 % ID/g.

Q: And the “LNCaP Tumor” value ([1]; 48 h after administration)?
A: Its value is 8.10 ± 2.67 % ID/g.

Q: And the Liver ([1]; 48 h after administration)?
A: The Liver was 0.32 ± 0.10 % ID/g.

Q: And the Lung ([1]; 48 h after administration)?
A: The Lung was 0.45 ± 0.18 % ID/g.

Q: And the Muscle ([1]; 48 h after administration)?
A: Its Muscle is 0.04 ± 0.05 % ID/g.

Q: And the Pancreas ([1]; 48 h after administration)?
A: The Pancreas was 0.13 ± 0.06 % ID/g.

Q: And the Spleen ([1]; 48 h after administration)?
A: The Spleen was 1.13 ± 0.70 % ID/g.

Q: And the “Stomach (% ID)” value ([1]; 48 h after administration)?
A: Its value is 0.16 ± 0.14 % ID.

Q: What about the Blood ([1]; 96 h after administration) of the same compound?
A: Its Blood is 0.01 ± 0.01 % ID/g.

Q: And the Brain ([1]; 96 h after administration)?
A: Its Brain is 0.01 ± 0.00 % ID/g.

Q: What about the Heart ([1]; 96 h after administration) of the same compound?
A: Its Heart is 0.07 ± 0.02 % ID/g.

Q: What about the Intestine ([1]; 96 h after administration) of the same compound?
A: The Intestine was 0.45 ± 0.29 % ID/g.

Q: And the Kidney ([1]; 96 h after administration)?
A: The Kidney was 3.27 ± 0.26 % ID/g.

Q: And the “LNCaP Tumor” value ([1]; 96 h after administration)?
A: The value was 4.48 ± 0.78 % ID/g.

Q: And the Liver ([1]; 96 h after administration)?
A: The Liver was 0.22 ± 0.01 % ID/g.

Q: What about the Lung ([1]; 96 h after administration) of the same compound?
A: Its Lung is 0.14 ± 0.08 % ID/g.

Q: What about the Muscle ([1]; 96 h after administration) of the same compound?
A: Its Muscle is 0.05 ± 0.02 % ID/g.

Q: What about the Pancreas ([1]; 96 h after administration) of the same compound?
A: The Pancreas was 0.06 ± 0.02 % ID/g.

Q: And the Spleen ([1]; 96 h after administration)?
A: Its Spleen is 0.61 ± 0.04 % ID/g.

Q: And the “Stomach (% ID)” value ([1]; 96 h after administration)?
A: The value was 0.04 ± 0.02 % ID.

Q: And the Blood ([1]; 192 h after administration)?
A: Its Blood is 0.01 ± 0.01 % ID/g.

Q: What about the Brain ([1]; 192 h after administration) of the same compound?
A: The Brain was 0.01 ± 0.01 % ID/g.

Q: What about the Heart ([1]; 192 h after administration) of the same compound?
A: The Heart was 0.06 ± 0.02 % ID/g.

Q: What about the Intestine ([1]; 192 h after administration) of the same compound?
A: Its Intestine is 0.27 ± 0.18 % ID/g.

Q: And the Kidney ([1]; 192 h after administration)?
A: The Kidney was 1.76 ± 0.70 % ID/g.

Q: What about the “LNCaP Tumor” value ([1]; 192 h after administration) of the same compound?
A: The value was 1.76 ± 0.45 % ID/g.

Q: What about the Liver ([1]; 192 h after administration) of the same compound?
A: Its Liver is 0.20 ± 0.05 % ID/g.

Q: What about the Lung ([1]; 192 h after administration) of the same compound?
A: The Lung was 0.07 ± 0.02 % ID/g.

Q: What about the Muscle ([1]; 192 h after administration) of the same compound?
A: The Muscle was 0.01 ± 0.01 % ID/g.

Q: What about the Pancreas ([1]; 192 h after administration) of the same compound?
A: The Pancreas was 0.08 ± 0.02 % ID/g.

Q: What about the Spleen ([1]; 192 h after administration) of the same compound?
A: The Spleen was 0.44 ± 0.12 % ID/g.

Q: And the “Stomach (% ID)” value ([1]; 192 h after administration)?
A: Its value is 0.01 ± 0.01 % ID.

Q: What about the “radioactivity in the eluate (in words)” value [2] of the same compound?
A: The value was “significantly higher”.
